Data on one compound can be found in US20140243401A1, “METHODS OF SCREENING COMPOUNDS THAT ARE CYTOTOXIC TO TUMOR CELLS AND METHODS OF TREATING TUMOR CELLS USING SUCH COMPOUND” (The Johns Hopkins University, priority 2010, published 2014).

In brackets after ≈: the same amount, converted by molar mass. Several values for one entry are separate records, joined by “and”; a condition that tells them apart may be missing. Identical values can stand only once.

The test system of data set [1] is MCF7 cells. The data set is described as follows: cellular ATP level, bioluminescence. The class given is cell-based, human. As for the experimental part: As mitochondria serve as the energy production center of the cell, their main purpose is the generation of ATP. As a functional readout, cellular ATP levels may be measured to obtain an indication of mitochondrial status upon compound treatment. MCF-7 cells were cultured the standard medium, and ATP levels were measured by chemiluminescence.
MCF7 human breast cancer cells cultured in DMEM containing 5 mM glucose medium with 10% fetal calf serum, 0.01 mg/ml insulin and 1% penicillin/streptomycin. Cells were plated in 24-well cell culture plates at 2×10^5 per well overnight. After drug treatment, cells were lysed using 500 μl of TE buffer (4 mM Tris, 0.25 mM EDTA, pH 7.4) and boiled at 95° C. for 7 min. ATP levels were measured within the linear range using the ATP BioLuminescence Kit CLSII (Roche) by following the manufacture's recommendation. Luminescence was detected using PerkinElmer Victor 1420.
Determination of the effect on cellular ATP level was carried out using the procedure described above. Cells were plated in 24 well cell culture plates at 2×10^5 per well overnight. Cells were cultured in 1 mM or 5 mM glucose at either 1% or 21% (ambient) oxygen levels. […] ATP levels were measured within the linear range using the ATP Bioluminescence Kit CLSII (Roche) by following the manufacture's recommendation. Luminescence was detected using PerkinElmer Victor 1420.

In data set [2] the test system is MCF7 cells. The data set is described as follows: JC-1 staining, mitochondrial membrane potential in MCF7 cells. The format is cell-based, human. The source says:
JC-1 staining is an indicator of mitochondrial membrane potential; with this assay, mitochondria within cells stained with this fluorescent dye emit a wavelength in the red spectrum when mitochondrial membrane potential is intact. When mitochondria are depolarized, the wavelength of the spectrum emitted changes to green. Therefore, the ratio of red/green fluorescence will give an indication of the intactness of the membrane potential of mitochondria, and thus mitochondrial function.
MCF7 cells were cultured in 24-well plates at 1×10^4 per well and incubated overnight. Following drug inhibition the medium was removed and 1 μg/ml JC-1 (Molecular Probes) in DPBS was added to the cells. Plates were incubated for 30 min at 37° C., and washed two times with DPBS. Fluorescence from each well was measured at 530 nm/590 nm (excitation/emission) and by 485 nm/535 nm (excitation/emission) separately using PerkinElmer Victor 1420. The ratio of red to green fluorescence is a measure of mitochondrial membrane potential and thus mitochondrial function directly.
Mitochondrial membrane polarization was monitored using the procedure described above. Cells were cultured in 24-well plates at 1×10^4 per well and incubated overnight. […] Fluorescence from each well was measured at 530 nm/590 nm (excitation/emission) and by 485 nm/535 nm (excitation/emission) separately using PerkinElmer Victor 1420.

Data set [3] relates to MCF7 human breast cancer cells. The data set is described as follows: XTT cytotoxicity assay, MCF7. The class given is cell-based. The protocol:
(§1) Cytotoxicity can be easily measured using XTT assays, which provide an indication of mitochondrial activity. The XTT assay is a non-radioactive alternative for the [^51Cr] release cytotoxicity assay. XTT is a tetrazolium salt that is reduced to a formazan dye only by metabolically active, viable cells. The reduction of XTT is measured spectrophotometrically as OD490-OD650. Thus, cells that are actively metabolizing will form reaction product when subjected to XTT measurement.
(§2) For this experiment, cells were cultured under standard culture conditions. MCF7 human breast cancer cells were cultured in DMEM containing 5 mM glucose medium with 10% fetal calf serum, 0.01 mg/ml insulin and 1% penicillin/streptomycin. To measure the cytotoxicity of specific compounds against cancer cells, 9×10^3 MCF7 cells were plated per well in 96-well plates. Following overnight culture, the compounds, dissolved in DMSO, were added to the wells in 1 μl volume at specified concentrations. Vehicle controls were run for each experiment. Each condition was run in triplicate. After 24 to 72 h of incubation, cells were incubated for 4 hours with the XTT reagent as per manufacturer's instructions (Cell Proliferation Kit II (XTT) Roche Diagnostics, New Jersey). Plates were read at OD490 on a PerkinElmer Victor 1420. Three wells containing the XTT reagent without cells served as the plate blank. XTT data were reported as OD490.
MCF7 human breast cancer cells were cultured in DMEM containing 1 mM or 5 mM glucose in the medium with 10% fetal calf serum, 0.01 mg/ml insulin and 1% penicillin/streptomycin. The cells were grown in two oxygen conditions, normoxia (21% 02) or hypoxia (1% 02). To measure the cytotoxicity of specific compounds against cancer cells, 9×10^3 MCF7 cells were plated per well in 96-well plates. Following overnight culture, the compounds, dissolved in DMSO, were added to the wells in 1 μl volume at specified concentrations. After 24 to 72 h of incubation, cells were incubated for 4 h with the XTT reagent as per manufacturer's instructions (Cell Proliferation Kit II (XTT) Roche Diagnostics, New Jersey). Plates were read at OD490 on a PerkinElmer Victor 1420. Three wells containing the XTT reagent without cells served as the plate blank. XTT data were reported as OD490Vehicle controls were run for each experiment. Each condition was run in triplicate.
On the technique in general: Formazan colour is commonly taken as a measure of viable cells.

In data set [4] the test system is Human ovarian cancer cell lines. The data set is described as follows: XTT cytotoxicity assay, human ovarian cancer cell lines. The note with it: 2 human ovarian cancer cell lines, read-out: LC50 (the source's name). The class given is cell-based. The protocol:
as §1
as §2, with “After 24 to 72 h of incubation, cells were incubated for 4 hours with the XTT reagent as per manufacturer's instructions (Cell Proliferation Kit II (XTT) Roche Diagnostics, New Jersey).” left out, “Three wells containing the XTT reagent without cells served as the plate blank. XTT data were reported as OD490.” left out
(§3) Using the XTT assay, LC50 values for C31 were determined for numerous human cancer cell lines and human hepatocytes, as shown in the following table: […]

Data set [5] concerns Human colon cancer cell line. Kind of data set: XTT cytotoxicity assay, human colon cancer cell line. The format is cell-based. The note with it: 1 human colon cancer cell line, read-out: LC50 (the source's name). As for the experimental part:
as §1
as §2, with “After 24 to 72 h of incubation, cells were incubated for 4 hours with the XTT reagent as per manufacturer's instructions (Cell Proliferation Kit II (XTT) Roche Diagnostics, New Jersey).” left out, “Three wells containing the XTT reagent without cells served as the plate blank. XTT data were reported as OD490.” left out
as §3

A further data set relates to human cancer cell lines. The data set is described as follows: XTT cytotoxicity assay, all human cancer cell lines tested. The class given is cell-based. As for the experimental part: as §1
as §2, with “XTT data were reported as OD490.” left out

As to `CCCCCCCCC1(C)SC(=O)C=C1OCC(=O)Nc1ccc(Cl)cc1` (stereo not shown) [Compound C31], the ATP levels entry in the data set on MCF7 cells [1] (MCF7, 1 mM or 5 mM glucose, 1% or 21% oxygen, FIG. 10) is on record as “ATP levels declined in all of the cells”; in the data set with MCF7 cells [1] (MCF7, standard medium 5 mM glucose, FIG. 5), “rapidly decreased”. Also, the “mitochondrial membrane potential (JC-1 staining)” value in the data set with MCF7 cells [2] (MCF7, standard conditions, FIGS. 6, 7) is “rapid and profound effect on altering mitochondrial membrane potential”. In addition, the “mitochondrial membrane polarization (JC-1 staining)” value with MCF7 cells [2] (MCF7, varying glucose and oxygen, FIG. 11) is reported as “reductions in mitochondrial membrane polarization”. The “cytotoxicity (XTT)” value in data set [3] (MCF7, 1 mM or 5 mM glucose, 1% or 21% O2, FIG. 9) was “increases if the cells are hypoglycemic and even more if the cells are hypoxic”. Also, the “cytotoxicity / cell viability (XTT)” value in data set [3] (MCF7, standard culture, FIG. 4 A, B) is “concentration-dependent cytotoxicity”. The CC50 in data set [4] was 6 to 8.1 µg/mL (≈ 14.6 to 19.8 µM); in data set [5] it was 4 µg/mL (≈ 9.76 µM); with human cancer cell lines (Homo sapiens, XTT, range over all cancer cell lines, read-out: LC50, human cancer cell lines), 3.3 µg/mL to 16.7 µg/mL and 8.25 µM to 41.8 µM. The “potential therapeutic index in vitro” value in the data set on human cancer cell lines (hepatocyte LC50 vs cancer cell line LC50) was in the range of 34 to 170 fold.
